Patent publication US20260297081A1, “COMPOUNDS AND METHODS OF TREATING CANCERS” (Cullgen Inc., priority 2023, published 2026)

Assays:
Type in all cases: cell-based
MCF7 cells = assay: Anti-proliferation (viability) of MCF7 cells (Table 7, FIG. 2B); conditions: Homo sapiens, MCF7, MCF7 cells, 3-6 days, 10-point serial dilution; read-out: GI IC50 in MCF-7
CDK4 [1] = target: T1, CDK4 (Homo sapiens, UniProt P11802+Q16531); assay: HiBiT detection of HiBiT-tagged CDK4 protein level in MCF7 cells, 16 hours (Table 8); design: expressed in transfected cells; host or cells: MCF7; conditions: MCF7 cells stably expressing HiBiT tagged target proteins; for activity at 0.01 µM: 10 nM, read-out: % CDK4 Relative Level (10 nM); for activity at 0.1 µM: 100 nM, read-out: % CDK4 Relative Level (100 nM)
Experimental: HiBiT detection system quantitatively measures total amounts of HiBiT-tagged proteins using a luminescent based method. MCF7 cells stably expressing HiBiT tagged target proteins were treated with heterobifunctional compounds at indicated concentrations for 16 hours, then lysed with Nano-Glo HiBiT Lytic detection reagents.
Target sequence in this assay (P11802 whole entry): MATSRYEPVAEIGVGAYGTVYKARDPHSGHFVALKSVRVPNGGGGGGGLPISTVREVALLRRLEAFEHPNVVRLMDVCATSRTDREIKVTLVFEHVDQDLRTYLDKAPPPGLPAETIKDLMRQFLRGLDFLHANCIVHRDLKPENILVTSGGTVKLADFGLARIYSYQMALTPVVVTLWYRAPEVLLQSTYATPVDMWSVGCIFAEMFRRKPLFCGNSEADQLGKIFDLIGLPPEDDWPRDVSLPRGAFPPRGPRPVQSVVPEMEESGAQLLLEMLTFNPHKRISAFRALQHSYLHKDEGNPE
Target sequence in this assay (P24385 whole entry partner): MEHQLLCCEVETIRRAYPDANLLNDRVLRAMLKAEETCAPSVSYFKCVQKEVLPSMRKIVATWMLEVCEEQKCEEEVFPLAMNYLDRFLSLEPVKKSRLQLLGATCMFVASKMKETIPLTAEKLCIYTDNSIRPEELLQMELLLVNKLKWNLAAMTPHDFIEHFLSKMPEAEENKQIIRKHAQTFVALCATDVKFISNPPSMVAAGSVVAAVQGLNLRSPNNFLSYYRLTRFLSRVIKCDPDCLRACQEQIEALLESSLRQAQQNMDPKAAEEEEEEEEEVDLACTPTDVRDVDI
Target sequence in this assay (Q16531 2-1140 limits assumed): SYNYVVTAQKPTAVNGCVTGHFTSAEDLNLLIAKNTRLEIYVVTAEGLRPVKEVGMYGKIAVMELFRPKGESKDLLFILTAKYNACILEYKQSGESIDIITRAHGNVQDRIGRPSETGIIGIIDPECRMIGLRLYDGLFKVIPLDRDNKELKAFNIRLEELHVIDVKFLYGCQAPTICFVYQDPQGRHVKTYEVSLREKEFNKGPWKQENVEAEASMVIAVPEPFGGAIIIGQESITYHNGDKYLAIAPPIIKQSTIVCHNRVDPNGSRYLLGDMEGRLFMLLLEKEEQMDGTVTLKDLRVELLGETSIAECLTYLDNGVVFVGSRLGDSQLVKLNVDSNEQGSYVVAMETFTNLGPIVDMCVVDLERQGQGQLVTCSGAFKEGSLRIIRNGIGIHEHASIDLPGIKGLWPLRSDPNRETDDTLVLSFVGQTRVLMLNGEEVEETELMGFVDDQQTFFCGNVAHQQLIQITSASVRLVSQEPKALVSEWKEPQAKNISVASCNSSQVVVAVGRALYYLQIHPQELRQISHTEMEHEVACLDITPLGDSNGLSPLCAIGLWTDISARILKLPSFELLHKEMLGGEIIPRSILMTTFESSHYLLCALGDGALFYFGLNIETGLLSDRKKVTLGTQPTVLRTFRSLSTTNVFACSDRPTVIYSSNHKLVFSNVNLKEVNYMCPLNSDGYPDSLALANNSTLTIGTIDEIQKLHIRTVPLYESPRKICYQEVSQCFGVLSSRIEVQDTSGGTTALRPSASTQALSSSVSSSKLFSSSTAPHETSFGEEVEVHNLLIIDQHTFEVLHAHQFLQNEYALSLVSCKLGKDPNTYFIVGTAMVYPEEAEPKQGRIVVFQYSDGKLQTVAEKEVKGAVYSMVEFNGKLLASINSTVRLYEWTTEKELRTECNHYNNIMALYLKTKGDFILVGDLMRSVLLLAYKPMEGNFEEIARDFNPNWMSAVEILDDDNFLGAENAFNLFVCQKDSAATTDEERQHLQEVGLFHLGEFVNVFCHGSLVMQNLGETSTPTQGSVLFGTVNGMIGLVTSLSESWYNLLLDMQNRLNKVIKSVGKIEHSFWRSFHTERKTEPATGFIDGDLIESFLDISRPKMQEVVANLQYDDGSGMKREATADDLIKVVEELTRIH

CDK4 [2] = target: T1, CDK4; assay: CDK4 percentage degradation in Calu-1 cells (Table 6); design: Cells that express cyclin D1-3 and CDK4/6 proteins were treated with heterobifunctional compounds; endogenous in cells; host or cells: Calu-1; conditions: 16 hours; for inhibition at 0.04 µM: 40 nM; for inhibition at 0.2 µM: 200 nM
Outline: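 Calu-1 cells exposed to heterobifunctional compounds at 40 nM or 200 nM for 16 h. Cyclin D1 and CDK4 levels measured by Western blot of RIPA lysates (BCA-normalised loading), bands quantified by densitometry and expressed as percentage degradation.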
Target sequence in this assay (P11802 2-303 limits assumed): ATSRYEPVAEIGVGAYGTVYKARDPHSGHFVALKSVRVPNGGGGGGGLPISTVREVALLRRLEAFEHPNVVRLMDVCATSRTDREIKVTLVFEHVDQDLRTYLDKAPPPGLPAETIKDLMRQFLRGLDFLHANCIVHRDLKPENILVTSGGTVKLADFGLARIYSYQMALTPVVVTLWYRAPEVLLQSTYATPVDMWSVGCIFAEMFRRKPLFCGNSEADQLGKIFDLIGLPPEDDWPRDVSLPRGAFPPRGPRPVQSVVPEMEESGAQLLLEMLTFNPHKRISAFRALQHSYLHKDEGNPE
Target sequence in this assay (P24385 whole entry partner): as the sequence (P24385 whole entry partner) above
Target sequence in this assay (Q16531 2-1140 limits assumed): as the sequence (Q16531 2-1140 limits assumed) above

Calu-1 cells = assay: Anti-proliferation (viability) of NSCLC Calu-1 cells, 3 days (Table 7, FIG. 2B); conditions: Homo sapiens, 72 h; Calu-1 cells, 3 days, 10-point serial dilution; read-out: GI IC50 in Calu-1
Experimental: To evaluate anti-proliferation activities of heterobifunctional compounds, NSCLC Calu-1 or ER+ breast cancer T47D cells were treated with selected heterobifunctional compounds following a 10-point serial dilution for 3 or 6 days, respectively.
To verify that heterobifunctional compound-mediated degradation is dependent on the binding to CDK4-cyclin D complex, a negative control compound, CPD-143, which is derived from active heterobifunctional compound CPD-10 was designed. CPD-143 bears the same DDB1 ligand and linker as CPD-10 but with a modified warhead to impair the binding of the control compound to CDK4.

IC50 (MCF7 cells) | activity at 0.01 µM (CDK4 [1]) | activity at 0.1 µM (CDK4 [1]) | inhibition at 0.04 µM (CDK4 [2]) | inhibition at 0.2 µM (CDK4 [2]) | IC50 (Calu-1 cells) | SMILES
< 50 nM | 55 to 85% | 55 to 85% | 30 to 50% | 30 to 50% |  | CC(=O)c1c(C)c2cnc(Nc3ccc(N4CCN(CCC(=O)N5CC6(CC(Nc7nc(NC(C)C)ccc7C(=O)Nc7ccc(N(C)C)nn7)C6)C5)CC4)cn3)nc2n(C2CCCC2)c1=O [CPD-305, 2-((2-(3-(4-(6-((6-acetyl-8-cyclopentyl-5-methyl-7-oxo-7,8-dihydropyrido[2,3-d]pyrimidin-2-yl)amino)pyridin-3-yl)piperazin-1-yl)propanoyl)-2-azaspiro[3.3]heptan-6-yl)amino)-N-(6-(dimethylamino)pyridazin-3-yl)-6-(isopropylamino)nicotinamide]
< 50 nM | 55 to 85% | 55 to 85% | 30 to 50% | 30 to 50% |  | CC(=O)c1c(C)c2cnc(Nc3ccc(N4CCN(CC5(C(=O)N6CC7(CC(Nc8nc(NC(C)C)ccc8C(=O)Nc8ccc(N(C)C)nn8)C7)C6)CC5)CC4)cn3)nc2n(C2CCCC2)c1=O [CPD-306, 2-((2-(1-((4-(6-((6-acetyl-8-cyclopentyl-5-methyl-7-oxo-7,8-dihydropyrido[2,3-d]pyrimidin-2-yl)amino)pyridin-3-yl)piperazin-1-yl)methyl)cyclopropane-1-carbonyl)-2-azaspiro[3.3]heptan-6-yl)amino)-N-(6-(dimethylamino)pyridazin-3-yl)-6-(isopropylamino)nicotinamide]
< 50 nM | 55 to 85% | 55 to 85% | 30 to 50% | 30 to 50% |  | CC(=O)c1c(C)c2cnc(Nc3ccc(N4CCN(C(C)CC(=O)N5CC6(CC(Nc7nc(NC(C)C)ccc7C(=O)Nc7cn(C)c(C8CC8)n7)C6)C5)CC4)cn3)nc2n(C2CCCC2)c1=O (stereo not drawn) [CPD-338, 2-((2-(3-(4-(6-((6-acetyl-8-cyclopentyl-5-methyl-7-oxo-7,8-dihydropyrido[2,3-d]pyrimidin-2-yl)amino)pyridin-3-yl)piperazin-1-yl)butanoyl)-2-azaspiro[3.3]heptan-6-yl)amino)-N-(2-cyclopropyl-1-methyl-1H-imidazol-4-yl)-6-(isopropylamino)nicotinamide]
< 50 nM | 55 to 85% | 55 to 85% | < 30% | < 30% |  | CC(=O)c1c(C)c2cnc(Nc3ccc(N4CCC(N(C)CC(=O)N5CCC(Nc6nc(NC(C)C)ccc6C(=O)Nc6ccc(N(C)C)nn6)CC5)CC4)cn3)nc2n(C2CCCC2)c1=O [CPD-360, 2-((1-(N-(1-(6-((6-acetyl-8-cyclopentyl-5-methyl-7-oxo-7,8-dihydropyrido[2,3-d]pyrimidin-2-yl)amino)pyridin-3-yl)piperidin-4-yl)-N-methylglycyl)piperidin-4-yl)amino)-N-(6-(dimethylamino)pyridazin-3-yl)-6-(isopropylamino)nicotinamide]
< 50 nM | 55 to 85% | 55 to 85% | < 30% | < 30% |  | [2H]C([2H])([2H])Nc1ccc(C(=O)Nc2ccc(N(C)C)nn2)c(NC2CC3(C2)CN(C(=O)CN2CCC4(CCN(c5ccc(Nc6ncc7c(C)c(C(C)=O)c(=O)n(C8CCCC8)c7n6)nc5)C4)C2)C3)n1 (stereo not drawn) [CPD-384, 2-((2-(2-(7-(6-((6-acetyl-8-cyclopentyl-5-methyl-7-oxo-7,8-dihydropyrido[2,3-d]pyrimidin-2-yl)amino)pyridin-3-yl)-2,7-diazaspiro[4.4]nonan-2-yl)acetyl)-2-azaspiro[3.3]heptan-6-yl)amino)-N-(6-(dimethylamino)pyridazin-3-yl)-6-((methyl-d3)amino)nicotinamide]
 |  |  |  |  | ≤ 10 nM | CC(=O)c1c(C)c2cnc(Nc3ccc(CN4CCN(CC(=O)NCC56CC(Nc7nc(NC(C)C)ccc7C(=O)Nc7ccc(N(C)C)nn7)(C5)C6)CC4)cn3)nc2n(C2CCCC2)c1=O [CPD-479, 2-((3-((2-(4-((6-((6-acetyl-8-cyclopentyl-5-methyl-7-oxo-7,8-dihydropyrido[2,3-d]pyrimidin-2-yl)amino)pyridin-3-yl)methyl)piperazin-1-yl)acetamido)methyl)bicyclo[1.1.1]pentan-1-yl)amino)-N-(6-(dimethylamino)pyridazin-3-yl)-6-(isopropylamino)nicotinamide]
 |  |  |  |  | 10 to 50 nM | [2H]C([2H])([2H])Nc1ccc(C(=O)Nc2cn(C)c(C3CC3)n2)c(N[C@H]2CC[C@H](C(=O)N3CCC(N4CCN(c5ccc(Nc6ncc7c(C)c(C(C)=O)c(=O)n(C8CCCC8)c7n6)nc5)CC4)C3)CC2)n1 (stereo partly drawn) [CPD-480, 2-((4-(3-(4-(6-((6-acetyl-8-cyclopentyl-5-methyl-7-oxo-7,8-dihydropyrido[2,3-d]pyrimidin-2-yl)amino)pyridin-3-yl)piperazin-1-yl)pyrrolidine-1-carbonyl)cyclohexyl)amino)-N-(2-cyclopropyl-1-methyl-1H-imidazol-4-yl)-6-((methyl-d3)amino)nicotinamide]
 |  |  |  |  | ≥ 50 nM | CC(=O)c1c(C)c2cnc(Nc3ccc(N4CCN(C5CCN(C(=O)NC6CCC(Nc7nc(NC(C)C)ccc7C(=O)Nc7ccc(N(C)C)nn7)CC6)C5)CC4)cn3)nc2n(C2CCCC2)c1=O (stereo not drawn) [CPD-483, 2-((4-(3-(4-(6-((6-acetyl-8-cyclopentyl-5-methyl-7-oxo-7,8-dihydropyrido[2,3-d]pyrimidin-2-yl)amino)pyridin-3-yl)piperazin-1-yl)pyrrolidine-1-carboxamido)cyclohexyl)amino)-N-(6-(dimethylamino)pyridazin-3-yl)-6-(isopropylamino)nicotinamide]
 |  |  |  |  | 10 to 50 nM | CC(=O)c1c(C)c2cnc(Nc3ccc(N4CC5(CC(N(C)CC(=O)N6CCC(Nc7nc(NC(C)C)ccc7C(=O)Nc7ccc(N(C)C)nn7)CC6)C5)C4)cn3)nc2n(C2CCCC2)c1=O [CPD-484, 2-((1-(N-(2-(6-((6-acetyl-8-cyclopentyl-5-methyl-7-oxo-7,8-dihydropyrido[2,3-d]pyrimidin-2-yl)amino)pyridin-3-yl)-2-azaspiro[3.3]heptan-6-yl)-N-methylglycyl)piperidin-4-yl)amino)-N-(6-(dimethylamino)pyridazin-3-yl)-6-(isopropylamino)nicotinamide]
 |  |  |  |  | ≤ 10 nM | CC(=O)c1c(C)c2cnc(Nc3ccc(N4CCC5(CCN(CC(=O)NCC67CC(Nc8nc(NC(C)C)ccc8C(=O)Nc8ccc(N(C)C)nn8)(C6)C7)C5)C4)cn3)nc2n(C2CCCC2)c1=O (stereo not drawn) [CPD-485, 2-((3-((2-(7-(6-((6-acetyl-8-cyclopentyl-5-methyl-7-oxo-7,8-dihydropyrido[2,3-d]pyrimidin-2-yl)amino)pyridin-3-yl)-2,7-diazaspiro[4.4]nonan-2-yl)acetamido)methyl)bicyclo[1.1.1]pentan-1-yl)amino)-N-(6-(dimethylamino)pyridazin-3-yl)-6-(isopropylamino)nicotinamide]
 |  |  |  |  | ≥ 50 nM | [2H]C([2H])([2H])Nc1ccc(C(=O)Nc2ccc(N(C)C)nn2)c(NC2CC3(C2)CN(C(=O)CN2CC4(C2)CN(c2ccc(Nc5ncc6c(C)c(C(C)=O)c(=O)n(C7CCCC7)c6n5)nc2)C4)C3)n1 [CPD-489, 2-((2-(2-(6-(6-((6-acetyl-8-cyclopentyl-5-methyl-7-oxo-7,8-dihydropyrido[2,3-d]pyrimidin-2-yl)amino)pyridin-3-yl)-2,6-diazaspiro[3.3]heptan-2-yl)acetyl)-2-azaspiro[3.3]heptan-6-yl)amino)-N-(6-(dimethylamino)pyridazin-3-yl)-6-((methyl-d3)amino)nicotinamide]
 |  |  |  |  | ≥ 50 nM | [2H]C([2H])([2H])Nc1ccc(C(=O)Nc2ccc(N(C)C)nn2)c(NC2CCN(C(=O)CN3CC4(C3)CN(c3ccc(Nc5ncc6c(C)c(C(C)=O)c(=O)n(C7CCCC7)c6n5)nc3)C4)CC2)n1 [CPD-490, 2-((1-(2-(6-(6-((6-acetyl-8-cyclopentyl-5-methyl-7-oxo-7,8-dihydropyrido[2,3-d]pyrimidin-2-yl)amino)pyridin-3-yl)-2,6-diazaspiro[3.3]heptan-2-yl)acetyl)piperidin-4-yl)amino)-N-(6-(dimethylamino)pyridazin-3-yl)-6-((methyl-d3)amino)nicotinamide]
 |  |  |  |  | ≤ 10 nM | CC(=O)c1c(C)c2cnc(Nc3ccc(CN4CCN(CC(=O)NCC5CC(Nc6nc(NC(C)C)ccc6C(=O)Nc6ccc(N(C)C)nn6)C5)CC4)cn3)nc2n(C2CCCC2)c1=O (stereo not drawn) [CPD-493, 2-((3-((2-(4-((6-((6-acetyl-8-cyclopentyl-5-methyl-7-oxo-7,8-dihydropyrido[2,3-d]pyrimidin-2-yl)amino)pyridin-3-yl)methyl)piperazin-1-yl)acetamido)methyl)cyclobutyl)amino)-N-(6-(dimethylamino)pyridazin-3-yl)-6-(isopropylamino)nicotinamide]
